Key:
[1] = tested on: HepG2 cells; test: Quantification of the secretion of ApoB; format: cell-based; conditions: 24 hours of incubation; for IC50: Homo sapiens, HepG2, 24 h, pIC50 = -log IC50
Method: HepG2 cells were cultured in 24-well plates in MEM Rega 3 containing 10% fetal calf serum. At 70% confluency, the medium was changed and the test compound or carrier (DMSO, 0.4% final concentration) was added. After 24 hours of incubation, the medium was transferred to Eppendorf tubes and cleared by centrifugation. A sheep antibody directed against either apoB was added to the supernatant and the mixture was kept at 8° C. for 24 hours. Then, rabbit anti-sheep antibody was added and the immune complex was allowed to precipitate for 24 hours at 8° C. The immunoprecipitate was pelleted by centrifugation for 25 minutes at 1320 g and washed twice with a buffer containing 40 mM Mops, 40 mM NaH2PO4, 100 mM NaF, 0.2 mM DTT, 5 mM EDTA, 5 mM EGTA, 1% Triton-X-100, 0.5% sodium deoxycholate (DOC), 0.1% SDS, 0.2 μM leupeptin and 0.2 μM PMSF. Radioactivity in the pellet was quantified by liquid scintillation counting. The IC50 values are usually converted to pIC50 values (=−log IC50 value) for ease of use.

[2] = target: MTP (Homo sapiens, UniProt P55157); test: MTP assay (triglyceride transfer from donor to acceptor vesicles); format: biochemical; conditions: MTP activity, percent triglyceride transfer from donor to acceptor vesicles, 37° C.
MTP, sequence (P55157 19-894, species assumed): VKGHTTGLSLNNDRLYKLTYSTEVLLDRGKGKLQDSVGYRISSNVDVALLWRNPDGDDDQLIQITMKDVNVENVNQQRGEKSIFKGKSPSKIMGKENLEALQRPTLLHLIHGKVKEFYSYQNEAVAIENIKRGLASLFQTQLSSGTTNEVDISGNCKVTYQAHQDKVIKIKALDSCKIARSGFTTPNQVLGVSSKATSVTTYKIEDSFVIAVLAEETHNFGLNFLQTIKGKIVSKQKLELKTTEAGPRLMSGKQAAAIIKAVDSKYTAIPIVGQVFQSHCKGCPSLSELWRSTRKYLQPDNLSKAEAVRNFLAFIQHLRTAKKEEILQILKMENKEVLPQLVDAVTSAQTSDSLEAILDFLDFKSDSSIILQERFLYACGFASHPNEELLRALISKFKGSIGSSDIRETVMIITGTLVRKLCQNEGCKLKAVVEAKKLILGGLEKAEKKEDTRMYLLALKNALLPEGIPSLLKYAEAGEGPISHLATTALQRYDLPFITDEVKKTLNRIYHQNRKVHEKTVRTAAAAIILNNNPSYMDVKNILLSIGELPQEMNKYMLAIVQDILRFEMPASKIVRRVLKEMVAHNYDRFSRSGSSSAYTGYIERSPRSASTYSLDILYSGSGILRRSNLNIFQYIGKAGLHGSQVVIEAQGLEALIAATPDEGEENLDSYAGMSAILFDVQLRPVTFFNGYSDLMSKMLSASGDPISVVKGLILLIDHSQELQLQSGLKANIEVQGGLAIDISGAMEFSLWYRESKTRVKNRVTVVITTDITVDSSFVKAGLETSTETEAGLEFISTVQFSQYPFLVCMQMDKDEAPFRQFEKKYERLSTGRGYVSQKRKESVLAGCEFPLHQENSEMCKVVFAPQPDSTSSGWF
MTP, sequence (P07237 18-508 partner, species assumed): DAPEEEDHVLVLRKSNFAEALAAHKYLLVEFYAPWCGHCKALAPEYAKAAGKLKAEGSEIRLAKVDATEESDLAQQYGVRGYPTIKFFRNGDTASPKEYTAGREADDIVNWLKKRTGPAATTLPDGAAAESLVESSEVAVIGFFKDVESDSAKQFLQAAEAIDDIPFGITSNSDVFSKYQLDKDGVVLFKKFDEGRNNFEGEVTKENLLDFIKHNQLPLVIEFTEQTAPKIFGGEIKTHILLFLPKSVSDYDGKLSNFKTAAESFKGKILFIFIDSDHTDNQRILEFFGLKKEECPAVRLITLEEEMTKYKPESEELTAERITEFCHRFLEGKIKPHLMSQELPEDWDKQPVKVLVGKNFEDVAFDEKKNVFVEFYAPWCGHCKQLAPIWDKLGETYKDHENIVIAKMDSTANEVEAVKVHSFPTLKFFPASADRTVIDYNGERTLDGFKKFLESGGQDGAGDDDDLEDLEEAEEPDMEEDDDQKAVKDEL
Summary of the method: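 Radiolabelled triglyceride transfer from donor vesicles (phosphatidylcholine, 7.5 mol % cardiolipin, 0.25 mol % glycerol tri[1-^14C]-oleate) to phosphatidylcholine acceptor vesicles with BSA, pH 7.5 Tris buffer; compounds in DMSO (0.13% final), 5 min preincubation at 37° C before MTP addition. Donor vesicles removed on DEAE-52; acceptor-supernatant ^14C counts give percent transfer.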

Compound COc1ccccc1C(=O)NC1CCN(C(=O)[C@@H]2CC[C@](C(=O)NCCC(=O)OC(C)C)(c3ccccc3)c3ccccc32)CC1 [Co. No. 257] has an IC50 [1] greater than 1000 nM and an IC50 [2] greater than 1000 nM.
CCOC(=O)C(Cc1ccc(O)cc1)NC(=O)[C@@]1(c2ccccc2)CC[C@H](C(=O)N2CCC(NC(=O)c3ccccc3OC)CC2)c2ccccc21 (stereo partly shown) [Co. No. 85] was tested, and the IC50 [1] was greater than 1000 nM and the IC50 [2] was greater than 100 nM.
For CCCOC(=O)[C@]1(c2ccccc2)CC[C@@H](C(=O)N2CCC(NC(=O)c3ccccc3N3CCOCC3)CC2)c2ccccc21 [Co. No. 260], the IC50 [1] was 6.34 nM and the IC50 [2] was 3.64 nM.
O=C(NC1CCN(CC2CCC(C(=O)NCc3ccccc3)(c3ccccc3)c3ccccc32)CC1)c1ccccc1 (stereo not shown) [Co. No. 1] was tested, and the IC50 [1] was 1840 nM.
In the case of COC(=O)[C@]1(c2ccccc2)CC[C@@H](C(=O)N2CCC(NC(=O)c3cc(OC)ccc3OC)CC2)c2ccccc21 [Co. No. 50], the IC50 [1] is reported as 16.1 nM and the IC50 [2] is reported as 11.6 nM.
Work on COc1ccccc1C(=O)NC1CCN(C(=O)[C@H]2CC[C@@](C(=O)N[C@H](C(=O)OC(C)(C)C)C(C)C)(c3ccccc3)c3ccccc32)CC1 [Co. No. 102] yielded an IC50 [1] of 168 nM and an IC50 [2] of 13.6 nM.
CCNC(=O)[C@]1(c2ccccc2)CC[C@@H](C(=O)N2CCC(NC(=O)c3ccccc3OC)CC2)c2ccccc21 (racemic) [Co. No. 7] gave an IC50 [1] of 2.28 nM and an IC50 [2] of 6.47 nM.
In the case of COc1ncccc1C(=O)NC1CCN(C(=O)[C@H]2CC[C@@](C(=O)NCCC(=O)OC(C)C)(c3ccccc3)c3ccccc32)CC1 [Co. No. 280], the IC50 [1] is reported as 3.82 nM and the IC50 [2] is reported as 0.82 nM.
With COc1ccccc1C(=O)NC1CCN(C(=O)[C@H]2CC[C@@](C(=O)N[C@@H](CCCCNC(=O)OC(C)C)C(=O)OC(C)C)(c3ccccc3)c3ccccc32)CC1 [Co. No. 213] the IC50 [1] was 5.9 nM and the IC50 [2] was 3.1 nM.
CCOC(=O)C1CCCCN1C(=O)[C@@]1(c2ccccc2)CC[C@H](C(=O)N2CCC(NC(=O)c3ccccc3OC)CC2)c2ccccc21 (stereo partly shown) [Co. No. 83] gave an IC50 [1] of 670 nM and an IC50 [2] of 71.4 nM.
O=C(NC1CCN(C(=O)C2CCC(C(=O)NCc3ccccc3)(c3ccccc3)c3ccccc32)CC1)c1ccccc1 (stereo not shown) [Co. No. 3] gave an IC50 [1] of 80.5 nM and an IC50 [2] of 17.7 nM.
Work on CCOC(=O)NCCCC[C@@H](NC(=O)[C@@]1(c2ccccc2)CC[C@H](C(=O)N2CCC(NC(=O)c3ccccc3OC)CC2)c2ccccc21)C(=O)OC(C)C [Co. No. 218] yielded an IC50 [1] of 65 nM and an IC50 [2] of 2.41 nM.
COC(=O)[C@]1(c2ccccc2)CC[C@@H](C(=O)N2CCC(NC(=O)c3c(O)cccc3OC)CC2)c2ccccc21 [Co. No. 55] gave an IC50 [1] greater than 1000 nM and an IC50 [2] of 60.7 nM.
For CC(C)OC(=O)CCNC(=O)[C@@]1(c2ccccc2)CC[C@H](C(=O)N2CCC(NC(=O)c3cccn(C)c3=O)CC2)c2ccccc21 [Co. No. 222], the IC50 [1] was greater than 1000 nM and the IC50 [2] was 45.8 nM.
COc1ccccc1C(=O)NC1CCN(C(=O)[C@H]2CC[C@@](C(=O)NCCC(=O)OC(C)C)(c3ccccc3)c3ccccc32)CC1 [Co. No. 199] showed an IC50 [1] of 7.36 nM and an IC50 [2] of 1.32 nM.
COc1ccccc1C(=O)NC1CCN(C(=O)[C@H]2CC[C@@](C(=O)N3CCC[C@H]3C(=O)OC(C)(C)C)(c3ccccc3)c3ccccc32)CC1 [Co. No. 110] was tested, and the IC50 [1] was 245 nM and the IC50 [2] was greater than 100 nM.
CCOC(=O)[C@H](NC(=O)[C@@]1(c2ccccc2)CC[C@H](C(=O)N2CCC(NC(=O)c3ccccc3OC)CC2)c2ccccc21)C(C)C [Co. No. 69] showed an IC50 [1] of 154 nM and an IC50 [2] of 24.4 nM.
Work on CCNC(=O)[C@]1(c2ccccc2)CC[C@H](C(=O)N2CCC(NC(=O)c3ccccc3-c3ccc(C(F)(F)F)cc3)CC2)c2ccccc21 [Co. No. 11] yielded an IC50 [1] greater than 100 nM and an IC50 [2] of 217 nM.
Compound CCCNC(=O)C1(c2ccccc2)CCC(CN2CCC(NC(=O)c3ccccc3-c3ccc(C(F)(F)F)cc3)CC2)c2ccccc21 (stereo not shown) [Co. No. 6] has an IC50 [1] of 20.4 nM and an IC50 [2] of 16 nM.
Work on CCOC(=O)NCCCC[C@H](NC(=O)[C@@]1(c2ccccc2)CC[C@H](C(=O)N2CCC(NC(=O)c3ccccc3OC)CC2)c2ccccc21)C(=O)OC(C)C [Co. No. 212] yielded an IC50 [1] of 22.3 nM and an IC50 [2] of 4.34 nM.
CCOC(=O)[C@@H](NC(=O)[C@@]1(c2ccccc2)CC[C@H](C(=O)N2CCC(NC(=O)c3ccccc3OC)CC2)c2ccccc21)C(C)C [Co. No. 68] was tested, and the IC50 [1] was greater than 1000 nM and the IC50 [2] was 17.9 nM.
CCOC(=O)CCCNC(=O)[C@@]1(c2ccccc2)CC[C@H](C(=O)N2CCC(NC(=O)c3ccccc3OC)CC2)c2ccccc21 [Co. No. 202] showed an IC50 [1] of 793 nM and an IC50 [2] of 3.16 nM.
Work on COc1ccccc1C(=O)NC1CCN(C(=O)[C@H]2CC[C@@](C(=O)N[C@@H](CC(C)C)C(=O)OC(C)(C)C)(c3ccccc3)c3ccccc32)CC1 [Co. No. 104] yielded an IC50 [1] of 171 nM and an IC50 [2] of 21.6 nM.
In the case of CCOC(=O)[C@H](C)NC(=O)[C@@]1(c2ccccc2)CC[C@H](C(=O)N2CCC(NC(=O)c3ccccc3OC)CC2)c2ccccc21 [Co. No. 66], the IC50 [1] is reported as greater than 1000 nM and the IC50 [2] is reported as 20.2 nM.
For COC(=O)[C@@H](CCCCNC(=O)OC(C)(C)C)NC(=O)[C@@]1(c2ccccc2)CC[C@H](C(=O)N2CCC(NC(=O)c3ccccc3OC)CC2)c2ccccc21 [Co. No. 215], the IC50 [1] was 18.4 nM and the IC50 [2] was 2.92 nM.
C=CCOC(=O)[C@]1(c2ccccc2)CC[C@@H](C(=O)N2CCC(NC(=O)c3ccccc3OC)CC2)c2ccccc21 [Co. No. 8] was tested, and the pIC50 ([1]; pIC50 = -log IC50, listed as 8) was 8.188 and the IC50 [2] was 2.82 nM.
CCOC(=O)NCCCC[C@@H](NC(=O)[C@@]1(c2ccccc2)CC[C@H](C(=O)N2CCC(NC(=O)c3ccccc3OC)CC2)c2ccccc21)C(=O)OCC [Co. No. 217] gave an IC50 [1] of 256 nM and an IC50 [2] of 8.22 nM.
In the case of CCOC(=O)[C@]1(c2ccccc2)CC[C@@H](C(=O)N2CCN(C(=O)c3ccc(C)cc3-c3ccc(C(F)(F)F)cc3)CC2)c2ccccc21 [Co. No. 28], the IC50 [1] is reported as 329 nM and the IC50 [2] is reported as greater than 100 nM.
With COC(=O)[C@]1(c2ccccc2)CC[C@@H](C(=O)N2CCC(NC(=O)c3cccnc3OC)CC2)c2ccccc21 [Co. No. 56] the IC50 [1] was 2.24 nM and the IC50 [2] was 1.69 nM.
For CCOc1ncccc1C(=O)NC1CCN(C(=O)[C@@H]2CC[C@](C(=O)OC)(c3ccccc3)c3ccccc32)CC1 [Co. No. 57], the IC50 [1] was 69.7 nM and the IC50 [2] was 5.68 nM.
For COc1ccccc1C(=O)NC1CCN(C(=O)[C@H]2CC[C@@](C(=O)NCC(=O)O)(c3ccccc3)c3ccccc32)CC1 [Co. No. 63], the IC50 [1] was greater than 10000 nM and the IC50 [2] was greater than 1000 nM.
COC(=O)[C@]1(c2ccccc2)CC[C@@H](C(=O)N2CCC(NC(=O)c3cc(OC)ccc3OCC(F)(F)F)CC2)c2ccccc21 [Co. No. 53] was tested, and the IC50 [1] was 61.8 nM and the IC50 [2] was 9.64 nM.
For COc1ccccc1C(=O)NC1CCN(C(=O)[C@H]2CC[C@](C(=O)NCCC(=O)OC(C)C)(c3ccc(Br)cc3)c3cc(Br)ccc32)CC1 [Co. No. 275], the IC50 [1] was greater than 1000 nM and the IC50 [2] was greater than 1000 nM.
COc1ccccc1C(=O)NC1CCN(C(=O)[C@H]2CC[C@@](C(=O)N[C@@H](COC(C)(C)C)C(=O)OC(C)(C)C)(c3ccccc3)c3ccccc32)CC1 [Co. No. 105] showed an IC50 [1] of 271 nM and an IC50 [2] of 48.8 nM.
Compound CCOC(=O)[C@@H](Cc1ccccc1)NC(=O)[C@@]1(c2ccccc2)CC[C@H](C(=O)N2CCC(NC(=O)c3ccccc3OC)CC2)c2ccccc21 [Co. No. 82] has an IC50 [1] of 289 nM and an IC50 [2] of 12.9 nM.
COC(=O)[C@@H](CCCCNC(=O)OC(C)C)NC(=O)[C@@]1(c2ccccc2)CC[C@H](C(=O)N2CCC(NC(=O)c3ccccc3OC)CC2)c2ccccc21 [Co. No. 219] gave an IC50 [1] of 300 nM and an IC50 [2] of 4.24 nM.
Compound COc1ccccc1C(=O)NC1CCN(C(=O)[C@H]2CC[C@@](C(=O)N[C@@H](CCCCNC(=O)OC(C)(C)C)C(=O)OC(C)(C)C)(c3ccccc3)c3ccccc32)CC1 [Co. No. 109] has an IC50 [1] of 2.77 nM and an IC50 [2] of 2.43 nM.
In the case of CCCNC(=O)C1(c2ccccc2)CCC(CN2CCC(NC(=O)c3ccccc3)CC2)c2ccccc21 (stereo not shown) [Co. No. 5], the IC50 [1] is reported as 1910 nM.
CCOC(=O)NCCCC[C@H](NC(=O)[C@@]1(c2ccccc2)CC[C@H](C(=O)N2CCC(NC(=O)c3cccn(C)c3=O)CC2)c2ccccc21)C(=O)OC(C)C [Co. No. 233] was tested, and the IC50 [1] was greater than 1000 nM and the IC50 [2] was 117 nM.
For C=CCOC(=O)[C@]1(c2ccccc2)CC[C@@H](C(=O)N2CCC(NC(=O)c3ccccc3OC)CC2)c2ccccc21 [Co. No. 46], the pIC50 ([1]; pIC50 = -log IC50, listed as 46) was 6.649.
Compound C=CCOC(=O)[C@@]1(c2ccccc2)CC[C@H](C(=O)N2CCC(NC(=O)c3ccccc3OC)CC2)c2ccccc21 [Co. No. 45] has an IC50 [1] of 2.63 nM.
For COc1ccccc1C(=O)NC1CCN(C(=O)[C@H]2CC[C@@](C(=O)N[C@@H](CCC(=O)O)C(=O)O)(c3ccccc3)c3ccccc32)CC1 [Co. No. 122], the IC50 [2] was 4750 nM.
O=C(NC1CCN(C(=O)C2CCC(C(=O)Nc3ccccc3)(c3ccccc3)c3ccccc32)CC1)c1ccccc1 (stereo not shown) [Co. No. 2] was tested, and the IC50 [1] was 74.5 nM.
Compound Cn1cccc(C(=O)NC2CCN(C(=O)[C@H]3CC[C@@](C(=O)N[C@H](C(=O)O)c4ccccc4)(c4ccccc4)c4ccccc43)CC2)c1=O [Co. No. 194] has an IC50 [2] greater than 10000 nM.
COC(=O)[C@@H](CCCCNC(=O)OC(C)C)NC(=O)[C@@]1(c2ccccc2)CC[C@H](C(=O)N2CCC(NC(=O)c3cccn(C)c3=O)CC2)c2ccccc21 [Co. No. 240] gave an IC50 [2] of 286 nM.
